In PubChem BioAssay (NCI):
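Exposure lasted 48 hours, with cells grown in 96-well plates and compounds tested at five concentrations. Here, GI50 denotes the concentration required for 50% inhibition of growth. At the TGI there is no net growth.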

How the values were obtained:
Assay in all cases: inhibition of tumour cell growth, NCI panel, 48 h
[1] = tested on: SR leukemia
[2] = tested on: K-562 leukemia
[3] = tested on: A549 NSCLC
[4] = tested on: HCC-2998 colon
[5] = tested on: NCI-H226 lung
[6] = tested on: LOX IMVI melanoma
[7] = tested on: SK-OV-3 ovarian
[8] = tested on: SF-295 CNS
[9] = tested on: 786-0 renal
[10] = tested on: KM12 colon

| SMILES | GI50 [1] [nM] | TGI [1] [µM] | GI50 [2] [nM] | TGI [2] [µM] | GI50 [3] [µM] | TGI [3] [µM] | GI50 [4] [nM] | TGI [4] [µM] | GI50 [5] [µM] | TGI [5] [µM] | GI50 [6] [nM] | TGI [6] [µM] | GI50 [7] [µM] | TGI [7] [µM] | GI50 [8] [nM] | TGI [8] [µM] | GI50 [9] [µM] | TGI [9] [µM] | GI50 [10] [nM] | TGI [10] [µM] |
| --- | --- | --- | --- | --- | --- | --- | --- | --- | --- | --- | --- | --- | --- | --- | --- | --- | --- | --- | --- | --- |
| N#Cc1c(NC(=O)c2cccs2)[n+]([O-])c2ccccc2[n+]1[O-] | > 100000 | > 100 | > 100000 | > 100 | > 100 | > 100 | > 100000 | > 100 | 86.4 | > 100 | > 100000 | > 100 | 26 | > 100 | > 100000 | > 100 | > 100 | > 100 | > 100000 | > 100 |
| N#Cc1nc(-c2cccc(Br)c2)cc(-c2ccc(Nc3nc(N4CCCCC4)nc(N4CCCCC4)n3)cc2)c1N | 1290 | > 100 | 2070 | > 100 | 3.68 | > 100 | 2310 | 6.62 | 1.85 | 3.94 | 1620 | 3.01 | 19.1 | > 100 | 2720 | 8.81 | 3.29 | > 100 | 1910 | 3.91 |
| CCNC(=O)C(O)C1(O)CCC2[C@@H]3CCC4=CC(=O)C=C[C@]4(C)C3[C@@H](O)C[C@@]21C (some centres not stated) | – | > 100 | – | > 100 | – | > 100 | – | > 100 | – | > 100 | – | > 100 | – | > 100 | – | > 100 | – | > 100 | – | > 100 |
| O=C(O)CC(Cc1ccc2c(c1)OCO2)C(=O)O (configuration not stated) | – | > 100 | – | > 100 | – | > 100 | – | > 100 | – | > 100 | – | > 100 | – | > 100 | – | > 100 | – | > 100 | – | > 100 |
| CCCCCCn1c(-c2ccc(C(=O)O/N=C(\N)c3ccc(OC)cc3)cc2)nc(-c2ccccc2)c1-c1ccccc1 | 196 | 0.528 | – | – | 0.777 | 3.36 | 2090 | 4.81 | – | – | 186 | 0.341 | 4.45 | > 100 | 1610 | 3.07 | 0.276 | 0.833 | 2810 | > 100 |
| COc1n[n+]([O-])c(C)cc1[N+](=O)[O-] | 11100 | 31.2 | – | – | 5.5 | 24.6 | 14300 | 27.6 | 24.4 | 63.3 | 12700 | 36 | – | – | 11300 | 28.5 | 8.4 | 21.7 | 11400 | 30.3 |
| COc1ncnc2c(NC3OC(CO)C(O)C3O)ncnc12 (configuration not stated) | – | 0.276 | – | – | – | – | – | > 35 | – | 3.82 | – | 0.619 | – | > 27.1 | – | 22.6 | – | 14 | – | > 65.1 |
| N=C(c1ccccc1)N1CCCCC1 | – | > 100 | – | – | – | > 100 | – | > 100 | – | > 100 | – | > 100 | – | – | – | > 100 | – | > 100 | – | > 100 |
| C/C(=N\NC(=S)N(C)C)c1ncc[nH]1 | – | 7.52 | – | 21.2 | – | > 100 | – | 38.6 | – | – | – | > 100 | – | 21.8 | – | > 100 | – | 5.67 | – | > 100 |
